Reference: ChEMBL document CHEMBL1128627, “Photoactivatable analogues of a Substance P non-peptidic antagonist, for probing the antagonist binding site of the NK1 receptor” (Bioorg Med Chem Lett, 1995)
pKi: −log10 of the molar value.

Target: Substance-P receptor (Homo sapiens, UniProt P25103)
Assay: In vitro binding affinity against human NK1 receptor expressed in CHO cells using [3H]-substance P as radioligand
Assay type: cell-based

Sequence of Substance-P receptor (P25103 whole entry): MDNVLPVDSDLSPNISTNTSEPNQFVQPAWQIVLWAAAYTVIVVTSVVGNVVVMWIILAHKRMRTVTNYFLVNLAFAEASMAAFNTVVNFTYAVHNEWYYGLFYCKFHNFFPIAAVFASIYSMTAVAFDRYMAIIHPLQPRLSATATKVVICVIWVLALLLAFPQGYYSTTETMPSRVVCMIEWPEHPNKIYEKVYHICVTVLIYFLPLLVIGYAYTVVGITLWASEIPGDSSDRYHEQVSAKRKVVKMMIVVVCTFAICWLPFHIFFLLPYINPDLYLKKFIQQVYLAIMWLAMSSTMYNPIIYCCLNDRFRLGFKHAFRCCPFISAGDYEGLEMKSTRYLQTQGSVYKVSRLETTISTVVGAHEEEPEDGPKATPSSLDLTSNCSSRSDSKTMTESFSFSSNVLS

Row | pKi | Compound
1 | 9.10 | COc1ccc(C2(C(F)(F)F)N=N2)cc1CN[C@H]1CCCN[C@H]1c1ccccc1
2 | 9.40 | COc1ccc(C(=O)c2ccccc2)cc1CN[C@H]1CCCN[C@H]1c1ccccc1
